Test results published in ChEMBL document CHEMBL1201862, “PubChem BioAssay data set” (2004).
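Interpolation was linear, between the two tested concentrations surrounding the appropriate level; five concentrations were tested over 48 hours in 96-well plates. GI50 = concentration required for 50% inhibition of growth.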 The source made the active and inactive calls. Cut-off read from the data, not from the text of the source: active = GI50 up to about 1.1 µM and inactive = higher.

What was measured:
Assay in all cases: DTP human tumour cell line panel, 48 h
[1] = test system: HT-29
[2] = test system: UACC-62
[3] = test system: KM12
[4] = test system: OVCAR-5
[5] = test system: HOP-62
[6] = test system: SK-MEL-5
[7] = test system: EKVX
[8] = test system: RPMI-8226
[9] = test system: RXF 393
[10] = test system: A549
[11] = test system: Malme-3M
[12] = test system: A498
[13] = test system: NCI-H23
[14] = test system: HOP-92
[15] = test system: NCI-H226
[16] = test system: COLO 205
[17] = test system: NCI-H522

| SMILES | GI50 [1] | GI50 [2] | GI50 [3] | GI50 [4] | GI50 [5] | GI50 [6] | GI50 [7] | GI50 [8] | GI50 [9] | GI50 [10] | GI50 [11] | GI50 [12] | GI50 [13] | GI50 [14] | GI50 [15] | GI50 [16] | GI50 [17] |
| --- | --- | --- | --- | --- | --- | --- | --- | --- | --- | --- | --- | --- | --- | --- | --- | --- | --- |
| Cc1ccc2nc(NC(=O)C(=O)C(C(=O)c3ccc4ccccc4c3)C3OC(=O)c4ccccc43)sc2c1 (stereo unspecified) | 15.2 µM (inactive) | 6.98 µM (inactive) | 16.8 µM (inactive) | 11.6 µM (inactive) | 11 µM (inactive) | 10.5 µM (inactive) | 17.5 µM (inactive) | 9.25 µM (inactive) | 1.87 µM (inactive) | 11.5 µM (inactive) | 10.1 µM (inactive) | 5.48 µM (inactive) | 4.99 µM (inactive) | 3.53 µM (inactive) | 2.1 µM (inactive) | 15.1 µM (inactive) | 12 µM (inactive) |
| COc1ccc(-c2cc(=O)c3ccccc3[nH]2)c(OC)c1 | > 100 µM (inactive) | > 100 µM (inactive) | > 100 µM (inactive) |  | > 100 µM (inactive) |  | > 100 µM (inactive) | > 100 µM (inactive) | > 100 µM (inactive) | > 100 µM (inactive) | > 100 µM (inactive) |  | > 100 µM (inactive) |  |  | > 100 µM (inactive) | > 100 µM (inactive) |
| CC(=O)O[C@H]1CC[C@@]2(C)C(=CC[C@@H]3C2CC[C@]2(C)Nc4[nH]ncc4CC32)C1 (stereo partly specified) | 16.9 µM (inactive) | 26.1 µM (inactive) | 16.6 µM (inactive) | > 100 µM (inactive) | > 100 µM (inactive) | 19.1 µM (inactive) | 29.8 µM (inactive) | 25.5 µM (inactive) | 30.4 µM (inactive) | 32.2 µM (inactive) | 25.6 µM (inactive) | > 100 µM (inactive) | 27.5 µM (inactive) |  | > 100 µM (inactive) |  |  |
| CC(C)(C)C1CC[C@H]2c3c([nH]c4ccc(Br)cc34)[C@H]3C(=O)N(c4ccccc4)C(=O)[C@H]3[C@H]2C1 (stereo partly specified) | 43 µM (inactive) | 23.3 µM (inactive) | 17.6 µM (inactive) | > 100 µM (inactive) | 54 µM (inactive) | 28.1 µM (inactive) | 92.9 µM (inactive) | 98.2 µM (inactive) | 32.7 µM (inactive) | 27.4 µM (inactive) | 31.6 µM (inactive) |  | 27.9 µM (inactive) | 23.1 µM (inactive) | 35.2 µM (inactive) | 7.74 µM (inactive) | 19.4 µM (inactive) |
| CCC(C)Cn1c(C)nc2c1C(=O)c1ccccc1C2=O (stereo unspecified) | 28.2 µM (inactive) | 9.98 µM (inactive) | 27.9 µM (inactive) |  | 23.8 µM (inactive) | 15 µM (inactive) | 31.9 µM (inactive) |  | 33.9 µM (inactive) | 31.5 µM (inactive) | 27.7 µM (inactive) |  | 20.7 µM (inactive) | 20.4 µM (inactive) | > 100 µM (inactive) | 19.8 µM (inactive) | 30 µM (inactive) |
| CCCCCCCCCCCCOP(N)(=O)OCCCCCCCCCCCC |  | > 100 µM (inactive) |  |  | > 100 µM (inactive) |  | > 100 µM (inactive) | > 100 µM (inactive) | > 100 µM (inactive) | > 100 µM (inactive) | > 100 µM (inactive) |  | > 100 µM (inactive) |  |  | > 100 µM (inactive) | > 100 µM (inactive) |
| CC1(C)C(=O)C(C)(C)C1=S | > 100 µM (inactive) | > 100 µM (inactive) | > 100 µM (inactive) | > 100 µM (inactive) | > 100 µM (inactive) | > 100 µM (inactive) | > 100 µM (inactive) | > 100 µM (inactive) |  | > 100 µM (inactive) | > 100 µM (inactive) | > 100 µM (inactive) | > 100 µM (inactive) |  | > 100 µM (inactive) | > 100 µM (inactive) | > 100 µM (inactive) |
| CCOP(=O)(C/C(O)=C1\C(=O)C(CCCNC(=O)OC(C)(C)C)N(Cc2ccc(OC)c(OC)c2)C1=O)OCC (stereo unspecified) | > 100 µM (inactive) | > 100 µM (inactive) | > 100 µM (inactive) | > 100 µM (inactive) | > 100 µM (inactive) | > 100 µM (inactive) | > 100 µM (inactive) | > 100 µM (inactive) | > 100 µM (inactive) | > 100 µM (inactive) | > 100 µM (inactive) | > 100 µM (inactive) | > 100 µM (inactive) |  | 77.4 µM (inactive) | > 100 µM (inactive) | 2.59 µM (inactive) |
| COC(C)(C)[C@H](O)C(O)CC(C)[C@@H]1CCC23CC12CCC1[C@@]2(C)CCC(OC(C)=O)C(C)(C)C2CC(OC2OC(COC(C)=O)C(O)C(O)C2O)[C@]13C (stereo partly specified) | 1.22 µM (inactive) | 2.77 µM (inactive) | 2.16 µM (inactive) | 2.34 µM (inactive) | 8.49 µM (inactive) | 5.48 µM (inactive) | 7.46 µM (inactive) | 0.264 µM (active) | 4.05 µM (inactive) | 2.94 µM (inactive) | 7.87 µM (inactive) | 8.83 µM (inactive) | 7.18 µM (inactive) | 3.72 µM (inactive) | 8.32 µM (inactive) | 3.48 µM (inactive) | 1.83 µM (inactive) |
